This is an account of results in PubChem BioAssay (NCI).

Test systems include SK-MEL-5 melanoma; T-47D breast; SNB-19 CNS; A498 renal; SF-539 CNS; CCRF-CEM leukemia; RXF 393 renal; HOP-92 NSCLC; MALME-3M melanoma; SK-OV-3 ovarian; K-562 leukemia; RPMI-8226 leukemia.
Holding throughout (experiment): growth of human tumour cells (NCI), 48 h

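The compound was tested at five concentrations on cells cultured in 96-well plates, with a 48-hour exposure period. Here, GI50 denotes the concentration required for 50% inhibition of growth. TGI marks complete inhibition of growth.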

On to `CC(=O)Nc1ccc2c(C)c3c4ccccc4n(C)c3nc2n1`, for which the TGI was 21.9 µM in the assay with SK-MEL-5 melanoma; more than 100 µM with T-47D breast; more than 100 µM in the assay with SNB-19 CNS; 46.2 µM with A498 renal; 77.6 µM with SF-539 CNS; 80.5 µM with CCRF-CEM leukemia. In the assay on RXF 393 renal, the TGI was 34.6 µM.
Take `C=C[C@H]1CN2CCc3c([nH]c4c([C@H]5CCCN5C)c(O)ccc34)[C@@H]2C[C@@H]1C[C@H]1c2[nH]c3ccccc3c2CCN1C`: the TGI worked out at 3.72 µM in the assay on T-47D breast; 3.57 µM in the assay with SNB-19 CNS; 2.82 µM in the assay on HOP-92 NSCLC; 3.19 µM with MALME-3M melanoma; 2.11 µM in the assay with CCRF-CEM leukemia; 2.25 µM in the assay with RXF 393 renal. The same compound gave a TGI in the assay with SK-OV-3 ovarian of 3.31 µM.
`O=C(CCCn1ccnc1[N+](=O)[O-])NCCn1ccnc1`: the TGI in the assay on SK-MEL-5 melanoma, with T-47D breast, in the assay on K-562 leukemia, in the assay with SNB-19 CNS, in the assay on MALME-3M melanoma and with A498 renal was more than 100 µM in each case. Moreover, the TGI in the assay with SF-539 CNS, in the assay with CCRF-CEM leukemia and with SK-OV-3 ovarian was more than 100 µM each time.
For the compound `NC1CC(=O)c2cc(Br)sc21` (centres undefined), the TGI in the assay on RPMI-8226 leukemia, in the assay on SK-MEL-5 melanoma, in the assay on T-47D breast, in the assay on K-562 leukemia, with SNB-19 CNS and with MALME-3M melanoma was more than 100 µM throughout. Moreover, the TGI in the assay on A498 renal, in the assay with SF-539 CNS, with CCRF-CEM leukemia, in the assay with RXF 393 renal and in the assay on SK-OV-3 ovarian was more than 100 µM in each case.
In the case of `CCCCCCCCCCCCCCCCP(=O)(O)OP(=O)(O)OCC1OC(n2cnc3c(N)ncnc32)C(O)C1O` (centres undefined), the TGI with SK-MEL-5 melanoma is more than 100 µM; in the assay with T-47D breast, more than 100 µM; in the assay on K-562 leukemia, more than 100 µM; in the assay on SNB-19 CNS, 42 µM; with HOP-92 NSCLC, 42 µM; in the assay with MALME-3M melanoma, 44.8 µM. The TGI in the assay with SF-539 CNS is 43.5 µM; in the assay on CCRF-CEM leukemia it was 97.4 µM; in the assay with SK-OV-3 ovarian, more than 100 µM.
On to `CC1OC(O[C@H]2CC[C@]3(C)[C@H]4CC=C5[C@@H]6[C@@H](C)[C@H](C)CC[C@]6(C(=O)O)CC[C@@]5(C(=O)O)[C@]4(C)CC[C@H]3C2(C)C)C(O)C(O)C1O` (some centres undefined), for which the TGI in the assay on SK-MEL-5 melanoma, in the assay on T-47D breast, in the assay on K-562 leukemia, in the assay on SNB-19 CNS, with HOP-92 NSCLC and with A498 renal was more than 75 µM in each case. Further, the TGI with SF-539 CNS, with CCRF-CEM leukemia, in the assay on RXF 393 renal and in the assay on SK-OV-3 ovarian was more than 75 µM each time.
Regarding `N=C1C(=N)c2ccccc2-c2ccccc21`, in the assay on RPMI-8226 leukemia, the GI50 is 1.75 µM. For the same compound, the TGI was more than 100 µM in the assay on RPMI-8226 leukemia; 1.53 µM in the assay on SK-MEL-5 melanoma; 1.57 µM in the assay with T-47D breast; 3.01 µM with SNB-19 CNS; 2.57 µM with MALME-3M melanoma; 4.13 µM in the assay with A498 renal. Also, the TGI in the assay on SF-539 CNS was 2.02 µM; in the assay on CCRF-CEM leukemia, more than 20 µM; in the assay with RXF 393 renal, 3.23 µM; in the assay on SK-OV-3 ovarian it was 3.07 µM.
On to `C[Si](C)(C)OC1c2[nH]c3ccccc3c2CN2C(=O)CCC12` (centres undefined), for which the TGI in the assay with RPMI-8226 leukemia, with SK-MEL-5 melanoma, in the assay on T-47D breast, with K-562 leukemia, with SNB-19 CNS and with HOP-92 NSCLC was more than 100 µM each time. Besides, the TGI in the assay on A498 renal, in the assay on SF-539 CNS and in the assay on SK-OV-3 ovarian was more than 100 µM in each case.
Turning to `C=C[C@@]1(C)CC(=O)[C@]2(O)[C@@]3(C)[C@@H](OC(C)=O)CCC(C)(C)[C@@H]3[C@H](OC(C)=O)[C@H](OC(C)=O)[C@@]2(C)O1`, the TGI with T-47D breast, in the assay on K-562 leukemia, in the assay on SNB-19 CNS, in the assay with HOP-92 NSCLC, in the assay on A498 renal and with SF-539 CNS was more than 100 µM throughout. In the assay with SK-OV-3 ovarian, this compound gave a TGI of more than 100 µM.
In the case of `N#CS/C(Cl)=C(/C(Cl)=C(Cl)Cl)[N+](=O)[O-]`, the TGI in the assay on SK-MEL-5 melanoma was more than 100 µM; in the assay with T-47D breast, more than 100 µM; in the assay with K-562 leukemia it was more than 100 µM; in the assay with SNB-19 CNS it was 29.3 µM; in the assay with MALME-3M melanoma it was 47.1 µM; in the assay on A498 renal, more than 100 µM. For the same compound, the TGI in the assay on SF-539 CNS, with CCRF-CEM leukemia, with RXF 393 renal and in the assay on SK-OV-3 ovarian was more than 100 µM throughout.
For the compound `CC1(C)C(=O)N=C(N)N1C(=O)OCc1ccccc1`, the TGI in the assay with RPMI-8226 leukemia, in the assay on SK-MEL-5 melanoma, with T-47D breast, in the assay with K-562 leukemia, in the assay with SNB-19 CNS and in the assay with HOP-92 NSCLC was more than 100 µM in each case. Besides, the TGI with MALME-3M melanoma, in the assay on A498 renal, in the assay on SF-539 CNS, with CCRF-CEM leukemia and in the assay on SK-OV-3 ovarian was more than 100 µM in each case.
`CCCCCc1c2nc(c(CCCCC)c3ccc([nH]3)c(CCCCC)c3ccc([nH]3)c(CCCCC)c3nc1C=C3)C=C2`: the TGI in the assay with RPMI-8226 leukemia, with SK-MEL-5 melanoma, in the assay on T-47D breast, with K-562 leukemia, in the assay with SNB-19 CNS and with HOP-92 NSCLC was more than 100 µM in each case. Besides, the TGI in the assay with MALME-3M melanoma, in the assay with SF-539 CNS, with CCRF-CEM leukemia and with SK-OV-3 ovarian was more than 100 µM in each case.
On to `CNC(=O)CCNC(=O)CCC(=O)OC`, for which the TGI in the assay with SK-MEL-5 melanoma, in the assay on T-47D breast, in the assay on K-562 leukemia, in the assay with SNB-19 CNS, in the assay on A498 renal and with SF-539 CNS was more than 100 µM each time. The TGI with RXF 393 renal and in the assay on SK-OV-3 ovarian was more than 100 µM throughout.
In the case of `OC1CC(O)c2c(Cl)sc(Cl)c21` (centres undefined), the TGI with SK-MEL-5 melanoma is more than 100 µM; in the assay with T-47D breast, more than 100 µM; in the assay on K-562 leukemia it was more than 100 µM; with HOP-92 NSCLC it was 56.2 µM; with MALME-3M melanoma, more than 100 µM; with A498 renal it was more than 100 µM. In addition, the TGI with SF-539 CNS is more than 100 µM; in the assay on CCRF-CEM leukemia it was more than 100 µM; with RXF 393 renal, 11.5 µM; with SK-OV-3 ovarian, 82 µM.
Regarding `CSc1cc(Cl)c(C)cc1S(=O)(=O)NC(=O)NNc1ccc(F)c(Cl)c1`, the TGI with SK-MEL-5 melanoma, with T-47D breast, with K-562 leukemia, in the assay on SNB-19 CNS, in the assay with MALME-3M melanoma and in the assay on A498 renal was more than 100 µM each time. The TGI in the assay on SF-539 CNS, with CCRF-CEM leukemia, in the assay on RXF 393 renal and in the assay on SK-OV-3 ovarian was more than 100 µM throughout.
As for `Cc1cc(Cl)ccc1N=NC(=O)NNc1ccc(Cl)cc1C`, the TGI in the assay with RPMI-8226 leukemia was found to be 89.4 µM; with SK-MEL-5 melanoma, 26.9 µM; in the assay on T-47D breast it was 26.6 µM; with K-562 leukemia it was 63 µM; in the assay on SNB-19 CNS, 48.9 µM; in the assay with MALME-3M melanoma, 37.9 µM. Also, the figures for the TGI in the assay with A498 renal and in the assay on CCRF-CEM leukemia were 21.8 µM and 58.5 µM, respectively.
`C=CCOCn1ccc(=O)[nH]c1=O`: the TGI in the assay with RPMI-8226 leukemia, in the assay on SK-MEL-5 melanoma, in the assay on T-47D breast, in the assay with K-562 leukemia, in the assay with SNB-19 CNS and in the assay with MALME-3M melanoma was more than 100 µM in each case. In addition, the TGI in the assay with A498 renal, in the assay on SF-539 CNS, with CCRF-CEM leukemia and with SK-OV-3 ovarian was more than 100 µM each time.
In the case of `O=[N+]([O-])C(=C(N1CCOCC1)N1CCOCC1)/C(Cl)=C(\Cl)[N+](=O)[O-]`, the TGI in the assay on SK-MEL-5 melanoma was 3.04 µM; in the assay with T-47D breast it was 4.39 µM; in the assay on K-562 leukemia it was more than 100 µM; with SNB-19 CNS, more than 65.6 µM; with MALME-3M melanoma, 3.24 µM; in the assay with A498 renal it was 36.1 µM. In addition, the TGI was 23.8 µM in the assay with SF-539 CNS, 96.8 µM in the assay with CCRF-CEM leukemia, 3.89 µM in the assay with RXF 393 renal and more than 100 µM in the assay with SK-OV-3 ovarian.
In the case of `CC1N(C)C(=O)OC12CCN(CCCC(=O)c1ccc(F)cc1)CC2` (centres undefined), the TGI in the assay with RPMI-8226 leukemia, in the assay with SK-MEL-5 melanoma, in the assay on T-47D breast, with K-562 leukemia, in the assay with SNB-19 CNS and in the assay with MALME-3M melanoma was more than 100 µM each time. Further, the TGI with A498 renal, in the assay on SF-539 CNS, with CCRF-CEM leukemia, with RXF 393 renal and with SK-OV-3 ovarian was more than 100 µM each time.
Turning to `COC12C=CC(CC1)C1C(=O)c3c(C)c(C)n(C)c3C(=O)C12` (centres undefined), the TGI in the assay on RPMI-8226 leukemia, with SK-MEL-5 melanoma, in the assay with T-47D breast, in the assay on K-562 leukemia, in the assay on SNB-19 CNS and with MALME-3M melanoma was more than 100 µM each time. Further, the TGI in the assay on A498 renal, in the assay on SF-539 CNS, with CCRF-CEM leukemia, in the assay on RXF 393 renal and in the assay with SK-OV-3 ovarian was more than 100 µM throughout.
